According to patent publication US20240360082A1, “SUBSTITUTED PYRIDONE COMPOUNDS USEFUL TO TREAT ORTH[…]” (priority 2021, published 2024):

Biological target: influenza A virus minigenome (PB2, PB1, PA, NP proteins) (UniProt P04665)
Type: cell-based
Settings: read-out: RNP_ Hubei B IC50

Chain of influenza A virus minigenome (PB2, PB1, PA, NP proteins) (P04665 whole entry): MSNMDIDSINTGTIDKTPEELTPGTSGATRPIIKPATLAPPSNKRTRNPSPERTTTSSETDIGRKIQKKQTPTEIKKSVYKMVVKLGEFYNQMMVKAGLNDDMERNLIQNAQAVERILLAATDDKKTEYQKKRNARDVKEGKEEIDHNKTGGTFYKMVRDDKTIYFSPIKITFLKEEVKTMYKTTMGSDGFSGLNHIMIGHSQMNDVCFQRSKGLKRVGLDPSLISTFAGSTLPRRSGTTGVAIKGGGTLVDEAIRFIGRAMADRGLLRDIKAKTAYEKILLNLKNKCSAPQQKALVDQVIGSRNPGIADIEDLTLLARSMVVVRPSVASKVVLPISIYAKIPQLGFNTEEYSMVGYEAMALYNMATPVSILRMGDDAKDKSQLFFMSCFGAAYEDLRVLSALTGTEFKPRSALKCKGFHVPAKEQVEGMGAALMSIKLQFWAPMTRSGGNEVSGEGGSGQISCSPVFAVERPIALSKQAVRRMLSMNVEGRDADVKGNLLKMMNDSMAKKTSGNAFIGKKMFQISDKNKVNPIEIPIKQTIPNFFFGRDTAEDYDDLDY

**Q.** With `C[C@]1(CF)COC[C@@H](COc2ccc(-c3cc(C(N)=O)c(=O)[nH]c3C(F)(F)F)cc2)O1` [Example 420, 5-(4-(((2S,6R)-6-(fluoromethyl)-6-methyl-1,4-dioxan-2-yl)methoxy)phenyl)-2-oxo-6-(trifluoromethyl)-1,2-dihydropyridine-3-carboxamide] as the compound, how does the IC50 read?
**A.** The IC50 was 5 to 10 µM.

**Q.** Which IC50 does the source give for `CCC1(COc2ccc(-c3cc(C(N)=O)c(=O)[nH]c3C(F)(F)F)cc2)COC1` [Example 228] here?
**A.** The IC50 was 10 to 25 µM.

**Q.** For `COC[C@@H]1COC[C@@H](COc2ccc(-c3cc(C(N)=O)c(=O)[nH]c3C(F)(F)F)cc2)O1` [Example 399, 5-(4-(((2S,6R)-6-(methoxymethyl)-1,4-dioxan-2-yl)methoxy)phenyl)-2-oxo-6-(trifluoromethyl)-1,2-dihydropyridine-3-carboxamide], which IC50 is on record?
**A.** Its IC50 is 5 to 10 µM.

**Q.** `NC(=O)c1cc(-c2ccc(OCc3cc(C4CC4)on3)cc2)c(C(F)(F)F)[nH]c1=O` [Example 268, 5-(4-((5-cyclopropylisoxazol-3-yl)methoxy)phenyl)-2-oxo-6-(trifluoromethyl)-1,2-dihydropyridine-3-carboxamide] was tested. Which IC50 did it give?
**A.** The IC50 was 25 to 50 µM.

**Q.** With `NC(=O)c1cc(-c2ccc(OCC3(F)COC3)cc2)c(C(F)(F)F)[nH]c1=O` [Example 226, 5-(4-((3-fluorooxetan-3-yl)methoxy)phenyl)-2-oxo-6-(trifluoromethyl)-1,2-dihydropyridine-3-carboxamide] as the compound, how does the IC50 read?
**A.** Its IC50 is 25 to 50 µM.

**Q.** How did the IC50 turn out when `C[C@]1(CS(C)(=O)=O)COC[C@@H](COc2ccc(-c3cc(C(N)=O)c(=O)[nH]c3C(F)(F)F)cc2)O1` [Example 412, 5-(4-(((2S,6R)-6-methyl-6-((methylsulfonyl)methyl)-1,4-dioxan-2-yl)methoxy)phenyl)-2-oxo-6-(trifluoromethyl)-1,2-dihydropyridine-3-carboxamide] was run?
**A.** Its IC50 is 5 to 10 µM.

**Q.** `C[C@]1(COC(F)F)COC[C@@H](COc2ccc(-c3cc(C(N)=O)c(=O)[nH]c3C(F)(F)F)cc2)O1` [Example 425, 5-(4-(((2S,6R)-6-((difluoromethoxy)methyl)-6-methyl-1,4-dioxan-2-yl)methoxy)phenyl)-2-oxo-6-(trifluoromethyl)-1,2-dihydropyridine-3-carboxamide] was tested. Which IC50 did it give?
**A.** Its IC50 is 5 to 10 µM.

**Q.** With `NC(=O)c1cc(-c2ccc(OCC3COCC(F)(F)C3)cc2)c(C(F)(F)F)[nH]c1=O` (single isomer, unassigned) [Example 337, 5-(4-((5,5-difluorotetrahydro-2H-pyran-3-yl)methoxy)phenyl)-2-oxo-6-(trifluoromethyl)-1,2-dihydropyridine-3-carboxamide] as the compound, how does the IC50 read?
**A.** Its IC50 is 5 to 10 µM.

**Q.** `NC(=O)c1cc(-c2ccc(OCC3CCCCO3)cc2)c(C(F)(F)F)[nH]c1=O` (stereo not drawn) [Example 236, 2-oxo-5-(4-((tetrahydro-2H-pyran-2-yl)methoxy)phenyl)-6-(trifluoromethyl)-1,2-dihydropyridine-3-carboxamide] was tested. Which IC50 did it give?
**A.** Its IC50 is 5 to 10 µM.

**Q.** With `NC(=O)c1cc(-c2ccc(OC[C@@H]3COC[C@H](C4CC4)O3)cc2)c(C(F)(F)F)[nH]c1=O` [Example 404, 5-(4-(((2S,6S)-6-cyclopropyl-1,4-dioxan-2-yl)methoxy)phenyl)-2-oxo-6-(trifluoromethyl)-1,2-dihydropyridine-3-carboxamide] as the compound, how does the IC50 read?
**A.** The IC50 was 10 to 25 µM.

**Q.** Which IC50 does the source give for `COC1(C2COCC(COc3ccc(-c4cc(C(N)=O)c(=O)[nH]c4C(F)(F)F)cc3)O2)CC1` (single isomer, unassigned) [Example 353, 5-(4-((6-(1-methoxycyclopropyl)-1,4-dioxan-2-yl)methoxy)phenyl)-2-oxo-6-(trifluoromethyl)-1,2-dihydropyridine-3-carboxamide] here?
**A.** Its IC50 is 5 to 10 µM.

**Q.** With `NC(=O)c1cc(-c2ccc(OCC3COCC(COC(F)(F)F)O3)cc2)c(C(F)(F)F)[nH]c1=O` (single isomer, unassigned) [Example 373, 2-oxo-5-(4-((6-((trifluoromethoxy)methyl)-1,4-dioxan-2-yl)methoxy)phenyl)-6-(trifluoromethyl)-1,2-dihydropyridine-3-carboxamide] as the compound, how does the IC50 read?
**A.** The IC50 was 5 to 10 µM.

**Q.** Which IC50 does the source give for `NC(=O)c1cc(-c2ccc(OCC3COCC(Cn4cccc4)O3)cc2)c(C(F)(F)F)[nH]c1=O` (single isomer, unassigned) [Example 375, 5-(4-((6-((1H-pyrrol-1-yl)methyl)-1,4-dioxan-2-yl)methoxy)phenyl)-2-oxo-6-(trifluoromethyl)-1,2-dihydropyridine-3-carboxamide] here?
**A.** Its IC50 is 5 to 10 µM.

**Q.** With `NC(=O)c1cc(-c2ccc(OCC3COCCO3)c(F)c2)c(C(F)(F)F)[nH]c1=O` (stereo not drawn) [Example 239, 5-(4-((1,4-dioxan-2-yl)methoxy)-3-fluorophenyl)-2-oxo-6-(trifluoromethyl)-1,2-dihydropyridine-3-carboxamide] as the compound, how does the IC50 read?
**A.** Its IC50 is 10 to 25 µM.

**Q.** For `NC(=O)c1cc(-c2ccc(OCC3COCCO3)cc2)c(C(F)(F)F)[nH]c1=O` (single isomer, unassigned) [Example 238, 5-(4-((1,4-dioxan-2-yl)methoxy)phenyl)-2-oxo-6-(trifluoromethyl)-1,2-dihydropyridine-3-carboxamide], which IC50 is on record?
**A.** The IC50 was 25 to 50 µM.

**Q.** `CN1CCOCC1COc1ccc(-c2cc(C(N)=O)c(=O)[nH]c2C(F)(F)F)cc1` (stereo not drawn) [Example 247, 5-(4-((4-methylmorpholin-3-yl)methoxy)phenyl)-2-oxo-6-(trifluoromethyl)-1,2-dihydropyridine-3-carboxamide] was tested. Which IC50 did it give?
**A.** Its IC50 is 25 to 50 µM.

**Q.** How did the IC50 turn out when `C[C@@]1(CF)COC[C@@H](COc2ccc(-c3cc(C(N)=O)c(=O)[nH]c3C(F)(F)F)cc2)O1` [Example 419, 5-(4-(((2S,6S)-6-(fluoromethyl)-6-methyl-1,4-dioxan-2-yl)methoxy)phenyl)-2-oxo-6-(trifluoromethyl)-1,2-dihydropyridine-3-carboxamide] was run?
**A.** Its IC50 is 5 to 10 µM.

**Q.** Which IC50 does the source give for `CC(C)[C@H]1COCC(COc2ccc(-c3cc(C(N)=O)c(=O)[nH]c3C(F)(F)F)cc2)N1C` (stereo partly drawn) [Example 211, 5-(4-(((5S)-5-isopropyl-4-methylmorpholin-3-yl)methoxy)phenyl)-2-oxo-6-(trifluoromethyl)-1,2-dihydropyridine-3-carboxamide] here?
**A.** The IC50 was 1 to 5 µM.

**Q.** `CN1C(=O)OCC1COc1ccc(-c2cc(C(N)=O)c(=O)[nH]c2C(F)(F)F)cc1` (stereo not drawn) [Example 235, 5-(4-((3-methyl-2-oxooxazolidin-4-yl)methoxy)phenyl)-2-oxo-6-(trifluoromethyl)-1,2-dihydropyridine-3-carboxamide] was tested. Which IC50 did it give?
**A.** Its IC50 is 25 to 50 µM.

**Q.** `NC(=O)c1cc(-c2ccc(OCC3C[C@@H]4CC[C@H]3O4)cc2)c(C(F)(F)F)[nH]c1=O` (single isomer, unassigned) [Example 312, 5-(4-((7-oxabicyclo[2.2.1]heptan-2-yl)methoxy)phenyl)-2-oxo-6-(trifluoromethyl)-1,2-dihydropyridine-3-carboxamide] was tested. Which IC50 did it give?
**A.** The IC50 was 5 to 10 µM.

**Q.** With `Cn1ncc2c1COCC2COc1ccc(-c2cc(C(N)=O)c(=O)[nH]c2C(F)(F)F)cc1` (single isomer, unassigned) [Example 289, 5-(4-((1-methyl-1,4,5,7-tetrahydropyrano[3,4-c]pyrazol-4-yl)methoxy)phenyl)-2-oxo-6-(trifluoromethyl)-1,2-dihydropyridine-3-carboxamide] as the compound, how does the IC50 read?
**A.** Its IC50 is 5 to 10 µM.

**Q.** With `NC(=O)c1cc(-c2ccc(OCC3COC(C(F)F)CO3)cc2)c(C(F)(F)F)[nH]c1=O` (single isomer, unassigned) [Example 347, 5-(4-((5-(difluoromethyl)-1,4-dioxan-2-yl)methoxy)phenyl)-2-oxo-6-(trifluoromethyl)-1,2-dihydropyridine-3-carboxamide] as the compound, how does the IC50 read?
**A.** Its IC50 is 5 to 10 µM.

Same assay, conditions: read-out: RNP_Hubei B

**Q.** `NC(=O)c1cc(-c2ccc(OCc3ccnnc3)cc2)c(C(F)(F)F)[nH]c1=O` [Example 84, 2-oxo-5-(4-(pyridazin-4-ylmethoxy)phenyl)-6-(trifluoromethyl)-1,2-dihydropyridine-3-carboxamide] was tested. Which IC50 did it give?
**A.** Its IC50 is 25 to 50 µM.

**Q.** Which IC50 does the source give for `C[C@H]1COCC(COc2ccc(-c3cc(C(N)=O)c(=O)[nH]c3C(F)(F)F)cc2)N1C` (stereo partly drawn) [Example 208, 5-(4-(((5S)-4,5-dimethylmorpholin-3-yl)methoxy)phenyl)-2-oxo-6-(trifluoromethyl)-1,2-dihydropyridine-3-carboxamide] here?
**A.** Its IC50 is 5 to 10 µM.

**Q.** For `NC(=O)c1cc(-c2ccc(OCc3cnc(NCC4CC4)nc3)cc2)c(C(F)(F)F)[nH]c1=O` [Example 161], which IC50 is on record?
**A.** The IC50 was 10 to 25 µM.

**Q.** `C[C@@H]1CN(Cc2ccc(-c3cc(C(N)=O)c(=O)[nH]c3C(F)(F)F)cc2)C[C@H](C)O1` [Example 35, 5-(4-(((2S,6R)-2,6-dimethylmorpholino)methyl)phenyl)-2-oxo-6-(trifluoromethyl)-1,2-dihydropyridine-3-carboxamide] was tested. Which IC50 did it give?
**A.** Its IC50 is 25 to 50 µM.

**Q.** Which IC50 does the source give for `NC(=O)c1cc(-c2ccc(OCC3CNC(=O)C3)cc2)c(C(F)(F)F)[nH]c1=O` (stereo not drawn) [Example 88, 2-oxo-5-(4-((5-oxopyrrolidin-3-yl)methoxy)phenyl)-6-(trifluoromethyl)-1,2-dihydropyridine-3-carboxamide] here?
**A.** Its IC50 is 5 to 10 µM.

**Q.** With `NC(=O)c1cc(-c2ccc(OCc3ccn4ccnc4c3)cc2)c(C(F)(F)F)[nH]c1=O` [Example 91, 5-(4-(imidazo[1,2-a]pyridin-7-ylmethoxy)phenyl)-2-oxo-6-(trifluoromethyl)-1,2-dihydropyridine-3-carboxamide] as the compound, how does the IC50 read?
**A.** Its IC50 is 25 to 50 µM.

**Q.** `NC(=O)c1cc(-c2ccc(OCc3ccc4no[n+]([O-])c4c3)cc2)c(C(F)(F)F)[nH]c1=O` [Example 94] was tested. Which IC50 did it give?
**A.** The IC50 was 25 to 50 µM.

**Q.** How did the IC50 turn out when `CN(C)Cc1ccc(-c2cc(C(N)=O)c(=O)[nH]c2C(F)(F)F)cc1` [Example 45, 5-(4-((dimethylamino)methyl)phenyl)-2-oxo-6-(trifluoromethyl)-1,2-dihydropyridine-3-carboxamide] was run?
**A.** The IC50 was 25 to 50 µM.

**Q.** Which IC50 does the source give for `NC(=O)c1cc(-c2ccc(OCc3ccc(Cl)nc3)cc2)c(C(F)(F)F)[nH]c1=O` [Example 176, 5-(4-((6-chloropyridin-3-yl)methoxy)phenyl)-2-oxo-6-(trifluoromethyl)-1,2-dihydropyridine-3-carboxamide] here?
**A.** The IC50 was 25 to 50 µM.

**Q.** Which IC50 does the source give for `CCCNc1cccc(COc2ccc(-c3cc(C(N)=O)c(=O)[nH]c3C(F)(F)F)cc2)c1` [Example 66, 2-oxo-5-(4-((3-(propylamino)benzyl)oxy)phenyl)-6-(trifluoromethyl)-1,2-dihydropyridine-3-carboxamide] here?
**A.** The IC50 was 0.1 to 1 µM.

**Q.** For `CN(C)C(=O)c1ccc(COc2ccc(-c3cc(C(N)=O)c(=O)[nH]c3C(F)(F)F)cc2)cc1` [Example 60, 5-(4-((4-(dimethylcarbamoyl)benzyl)oxy)phenyl)-2-oxo-6-(trifluoromethyl)-1,2-dihydropyridine-3-carboxamide], which IC50 is on record?
**A.** The IC50 was 25 to 50 µM.
